According to ChEMBL document CHEMBL5046279, “Discovery of a Partial Glucokinase Activator Clinical Candidate: Diethyl ((3-(3-((5-(Azetidine-1-carbonyl)pyrazin-2-yl)oxy)-5-isopropoxybenzamido)-1H-pyrazol-1-yl)methyl)phosphonate (BMS-820132)” (J Med Chem, 2022):
Active and inactive are the calls of the source.

How the values were obtained:
Format in all cases: functional, organism-based
[1] = test system: Mus musculus; experiment: Anti-hyperglycemic activity in C57BL/6J DIO mouse assessed as reduction in plasma glucose level at 0.3 umol/kg at 120 mins post dose by OGTT; settings: dose 0.3 µM/Kg
[2] = organism: Mus musculus; experiment: Anti-hyperglycemic activity in C57BL/6J DIO mouse assessed as reduction in plasma glucose level incubated for 1 hr by OGTT; settings: dose 1-10 µM/Kg
[3] = test system: Mus musculus; experiment: Anti-hyperglycemic activity in C57BL/6J DIO mouse assessed as reduction in plasma glucose level at 3 to 30 umol/kg measured on day 1 by OGTT; settings: dose 3-30 µM/Kg

Measured: Activity

CCOP(=O)(Cn1ccc(NC(=O)c2cc(Oc3cnc(C(=O)N4CCC4)cn3)cc(OC(C)C)c2)n1)OCC
active: [1] | [2] Dose-Dependent Effect | [3]
